Results taken from ChEMBL document CHEMBL1221226 (Nat Chem Biol, 2009).

How the values were obtained:
Glucagon receptor = Glucagon receptor (Homo sapiens, UniProt P47871); experiment: Agonist activity at GCGR expressed in HEK293 cells assessed as stimulation of cAMP production by luciferase reporter gene assay; format: functional, cell-based
[1] = biological target: Glucagon-like peptide 1 receptor (Homo sapiens, UniProt P43220); experiment: Agonist activity at GLP1R expressed in HEK293 cells assessed as stimulation of cAMP production by luciferase reporter gene assay; format: functional, cell-based
Chain of Glucagon-like peptide 1 receptor (P43220 whole entry): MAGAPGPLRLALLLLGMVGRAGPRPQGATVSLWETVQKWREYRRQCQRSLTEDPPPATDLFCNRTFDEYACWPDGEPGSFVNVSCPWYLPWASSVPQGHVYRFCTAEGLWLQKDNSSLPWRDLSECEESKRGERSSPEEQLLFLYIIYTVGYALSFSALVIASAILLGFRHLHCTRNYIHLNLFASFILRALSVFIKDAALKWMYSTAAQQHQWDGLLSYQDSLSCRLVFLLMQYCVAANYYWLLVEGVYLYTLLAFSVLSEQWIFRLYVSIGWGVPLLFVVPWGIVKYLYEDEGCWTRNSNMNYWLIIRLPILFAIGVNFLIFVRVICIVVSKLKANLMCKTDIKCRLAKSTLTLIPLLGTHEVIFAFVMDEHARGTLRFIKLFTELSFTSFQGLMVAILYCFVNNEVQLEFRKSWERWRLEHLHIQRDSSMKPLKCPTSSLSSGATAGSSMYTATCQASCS

Chain of Glucagon receptor (P47871 whole entry): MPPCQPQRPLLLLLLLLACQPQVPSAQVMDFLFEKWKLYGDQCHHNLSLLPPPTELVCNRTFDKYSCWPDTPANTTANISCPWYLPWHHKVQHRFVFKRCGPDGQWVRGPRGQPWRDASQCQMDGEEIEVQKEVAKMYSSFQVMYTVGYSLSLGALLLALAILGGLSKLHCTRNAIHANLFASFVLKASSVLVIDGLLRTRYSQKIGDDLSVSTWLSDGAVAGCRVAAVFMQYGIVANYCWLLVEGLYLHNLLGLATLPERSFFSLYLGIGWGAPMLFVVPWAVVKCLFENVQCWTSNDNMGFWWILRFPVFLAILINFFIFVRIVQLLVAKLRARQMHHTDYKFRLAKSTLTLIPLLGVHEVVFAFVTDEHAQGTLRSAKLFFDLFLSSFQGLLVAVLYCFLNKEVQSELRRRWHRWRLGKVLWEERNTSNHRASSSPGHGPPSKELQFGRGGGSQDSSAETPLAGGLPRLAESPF

Row | Compound | EC50 (Glucagon receptor) [pM] | EC50 [1] [pM]
1 | CSCC[C@H](NC(=O)[C@H](CC(C)C)NC(=O)[C@H](Cc1c[nH]c2ccccc12)NC(=O)[C@H](CCC(N)=O)NC(=O)[C@@H](NC(=O)[C@H](Cc1ccccc1)NC(=O)[C@H](CC(=O)O)NC(=O)[C@H](CCC(N)=O)NC(=O)[C@H](C)NC(=O)[C@H](CCCNC(=N)N)NC(=O)[C@H](CCCNC(=N)N)NC(=O)[C@H](CO)NC(=O)[C@H](CC(=O)O)NC(=O)[C@H](CC(C)C)NC(=O)[C@H](Cc1ccc(O)cc1)NC(=O)[C@H](CCCCN)NC(=O)[C@H](CO)NC(=O)[C@H](Cc1ccc(O)cc1)NC(=O)[C@H](CC(=O)O)NC(=O)[C@H](CO)NC(=O)[C@@H](NC(=O)[C@H](Cc1ccccc1)NC(=O)[C@@H](NC(=O)CNC(=O)[C@H](CCC(N)=O)NC(=O)[C@H](CO)N[C@@H](Cc1cnc[nH]1)C(=O)O)[C@@H](C)O)[C@@H](C)O)C(C)C)C(=O)N[C@@H](CC(N)=O)C(=O)N[C@H](C(N)=O)[C@@H](C)O | 150 | 600
2 | CSCC[C@H](NC(=O)[C@H](CC(C)C)NC(=O)[C@H](Cc1c[nH]c2ccccc12)NC(=O)[C@H](CCC(N)=O)NC(=O)[C@@H](NC(=O)[C@H](Cc1ccccc1)NC(=O)[C@H](CC(=O)O)NC(=O)[C@H](CCC(N)=O)NC(=O)[C@H](C)NC(=O)[C@H](CCCN=C(N)N)NC(=O)[C@H](CCCN=C(N)N)NC(=O)[C@H](CCC(=O)O)NC(=O)[C@H](CC(=O)O)NC(=O)[C@H](CC(C)C)NC(=O)[C@H](Cc1ccc(O)cc1)NC(=O)[C@H](CCCCN)NC(=O)[C@H](CO)NC(=O)[C@H](Cc1ccc(O)cc1)NC(=O)[C@H](CC(=O)O)NC(=O)[C@H](CO)NC(=O)[C@@H](NC(=O)[C@H](Cc1ccccc1)NC(=O)[C@@H](NC(=O)CNC(=O)[C@H](CCC(N)=O)NC(=O)[C@H](CO)N[C@@H](Cc1cnc[nH]1)C(=O)O)[C@@H](C)O)[C@@H](C)O)C(C)C)C(=O)N[C@@H](CC(N)=O)C(=O)N[C@H](C(N)=O)[C@@H](C)O | 49 | 170
3 | CSCC[C@H](NC(=O)[C@H](CC(C)C)NC(=O)[C@H](Cc1c[nH]c2ccccc12)NC(=O)[C@H](CCC(N)=O)NC(=O)[C@@H](NC(=O)[C@H](Cc1ccccc1)NC(=O)[C@H](CC(=O)O)NC(=O)[C@H](CCC(N)=O)NC(=O)[C@H](C)NC(=O)[C@H](CCCN=C(N)N)NC(=O)[C@H](CCCN=C(N)N)NC(=O)[C@H](CCC(=O)O)NC(=O)[C@H](CC(=O)O)NC(=O)[C@H](CC(C)C)NC(=O)[C@H](Cc1ccc(O)cc1)NC(=O)[C@H](CCCCN)NC(=O)[C@H](CO)NC(=O)[C@H](Cc1ccc(O)cc1)NC(=O)[C@H](CC(=O)O)NC(=O)[C@H](CO)NC(=O)[C@@H](NC(=O)[C@H](Cc1ccccc1)NC(=O)[C@@H](NC(=O)CNC(=O)[C@H](CCC(N)=O)NC(=O)[C@H](CO)N[C@@H](Cc1cnc[nH]1)C(=O)O)[C@@H](C)O)[C@@H](C)O)C(C)C)C(=O)N[C@@H](CC(N)=O)C(=O)N[C@H](C(=O)O)[C@@H](C)O | 53 | 1100
4 | CSCC[C@H](NC(=O)[C@H](CC(C)C)NC(=O)[C@H](Cc1c[nH]c2ccccc12)NC(=O)[C@H](CCC(N)=O)NC(=O)[C@@H](NC(=O)[C@H](Cc1ccccc1)NC(=O)[C@H](CC(=O)O)NC(=O)[C@H](CCC(N)=O)NC(=O)[C@H](C)NC(=O)[C@H](CCCNC(=N)N)NC(=O)[C@H](CCCNC(=N)N)NC(=O)[C@H](Cc1c[nH]cn1)NC(=O)[C@H](CC(=O)O)NC(=O)[C@H](CC(C)C)NC(=O)[C@H](Cc1ccc(O)cc1)NC(=O)[C@H](CCCCN)NC(=O)[C@H](CO)NC(=O)[C@H](Cc1ccc(O)cc1)NC(=O)[C@H](CC(=O)O)NC(=O)[C@H](CO)NC(=O)[C@@H](NC(=O)[C@H](Cc1ccccc1)NC(=O)[C@@H](NC(=O)CNC(=O)[C@H](CCC(N)=O)NC(=O)[C@H](CO)N[C@@H](Cc1cnc[nH]1)C(=O)O)[C@@H](C)O)[C@@H](C)O)C(C)C)C(=O)N[C@@H](CC(N)=O)C(=O)N[C@H](C(N)=O)[C@@H](C)O | 100 | 230
5 | CSCC[C@H](NC(=O)[C@H](CC(C)C)NC(=O)[C@H](Cc1c[nH]c2ccccc12)NC(=O)[C@H](CCC(N)=O)NC(=O)[C@@H](NC(=O)[C@H](Cc1ccccc1)NC(=O)[C@H](CC(=O)O)NC(=O)[C@H](CCC(N)=O)NC(=O)[C@H](C)NC(=O)[C@H](CCCN=C(N)N)NC(=O)[C@H](CCCN=C(N)N)NC(=O)[C@H](CCC(N)=O)NC(=O)[C@H](CC(=O)O)NC(=O)[C@H](CC(C)C)NC(=O)[C@H](Cc1ccc(O)cc1)NC(=O)[C@H](CCCCN)NC(=O)[C@H](CO)NC(=O)[C@H](Cc1ccc(O)cc1)NC(=O)[C@H](CC(=O)O)NC(=O)[C@H](CO)NC(=O)[C@@H](NC(=O)[C@H](Cc1ccccc1)NC(=O)[C@@H](NC(=O)CNC(=O)[C@H](CCC(N)=O)NC(=O)[C@H](CO)N[C@@H](Cc1cnc[nH]1)C(=O)O)[C@@H](C)O)[C@@H](C)O)C(C)C)C(=O)N[C@@H](CC(N)=O)C(=O)N[C@H](C(N)=O)[C@@H](C)O | – | 260
6 | CSCC[C@H](NC(=O)[C@H](CC(C)C)NC(=O)[C@H](Cc1c[nH]c2ccccc12)NC(=O)[C@H](CCC(N)=O)NC(=O)[C@@H](NC(=O)[C@H](Cc1ccccc1)NC(=O)[C@H](CC(=O)O)NC(=O)[C@H](CCC(N)=O)NC(=O)[C@H](C)NC(=O)[C@H](CCCNC(=N)N)NC(=O)[C@H](CCCNC(=N)N)NC(=O)C[C@H](CCC(=O)O)NC(=O)[C@H](CC(=O)O)NC(=O)[C@H](CC(C)C)NC(=O)[C@H](Cc1ccc(O)cc1)NC(=O)[C@H](CCCCN)NC(=O)[C@H](CO)NC(=O)[C@H](Cc1ccc(O)cc1)NC(=O)[C@H](CC(=O)O)NC(=O)[C@H](CO)NC(=O)[C@@H](NC(=O)[C@H](Cc1ccccc1)NC(=O)[C@@H](NC(=O)CNC(=O)[C@H](CCC(N)=O)NC(=O)[C@H](CO)N[C@@H](Cc1cnc[nH]1)C(=O)O)[C@@H](C)O)[C@@H](C)O)C(C)C)C(=O)N[C@@H](CC(N)=O)C(=O)N[C@H](C(N)=O)[C@@H](C)O | 54 | 130
7 | CSCC[C@H](NC(=O)[C@H](CC(C)C)NC(=O)[C@H](Cc1c[nH]c2ccccc12)NC(=O)[C@H](CCC(N)=O)NC(=O)[C@@H](NC(=O)[C@H](Cc1ccccc1)NC(=O)[C@H](CC(=O)O)NC(=O)[C@H](CCC(N)=O)NC(=O)[C@H](C)NC(=O)[C@H](CCCNC(=N)N)NC(=O)[C@H](CCCNC(=N)N)NC(=O)[C@H](CCS(=O)(=O)O)NC(=O)[C@H](CC(=O)O)NC(=O)[C@H](CC(C)C)NC(=O)[C@H](Cc1ccc(O)cc1)NC(=O)[C@H](CCCCN)NC(=O)[C@H](CO)NC(=O)[C@H](Cc1ccc(O)cc1)NC(=O)[C@H](CC(=O)O)NC(=O)[C@H](CO)NC(=O)[C@@H](NC(=O)[C@H](Cc1ccccc1)NC(=O)[C@@H](NC(=O)CNC(=O)[C@H](CCC(N)=O)NC(=O)[C@H](CO)N[C@@H](Cc1cnc[nH]1)C(=O)O)[C@@H](C)O)[C@@H](C)O)C(C)C)C(=O)N[C@@H](CC(N)=O)C(=O)N[C@H](C(N)=O)[C@@H](C)O | 100 | 120
8 | CSCC[C@H](NC(=O)[C@H](CC(C)C)NC(=O)[C@H](Cc1c[nH]c2ccccc12)NC(=O)[C@H](CCC(N)=O)NC(=O)[C@@H](NC(=O)[C@H](Cc1ccccc1)NC(=O)[C@H](CC(=O)O)NC(=O)[C@H](CCC(N)=O)NC(=O)[C@H](C)NC(=O)[C@H](CCCNC(=N)N)NC(=O)[C@H](CCCNC(=N)N)NC(=O)[C@H](CC(=O)O)NC(=O)[C@H](CC(=O)O)NC(=O)[C@H](CC(C)C)NC(=O)[C@H](Cc1ccc(O)cc1)NC(=O)[C@H](CCCCN)NC(=O)[C@H](CO)NC(=O)[C@H](Cc1ccc(O)cc1)NC(=O)[C@H](CC(=O)O)NC(=O)[C@H](CO)NC(=O)[C@@H](NC(=O)[C@H](Cc1ccccc1)NC(=O)[C@@H](NC(=O)CNC(=O)[C@H](CCC(N)=O)NC(=O)[C@H](CO)N[C@@H](Cc1cnc[nH]1)C(=O)O)[C@@H](C)O)[C@@H](C)O)C(C)C)C(=O)N[C@@H](CC(N)=O)C(=O)N[C@H](C(N)=O)[C@@H](C)O | 68 | 570
9 | CSCC[C@H](NC(=O)[C@H](CC(C)C)NC(=O)[C@H](Cc1c[nH]c2ccccc12)NC(=O)[C@H](CCC(N)=O)NC(=O)[C@@H](NC(=O)[C@H](Cc1ccccc1)NC(=O)[C@H](CC(=O)O)NC(=O)[C@H](CCC(N)=O)NC(=O)[C@H](C)NC(=O)[C@H](CCCN=C(N)N)NC(=O)[C@H](CCCN=C(N)N)NC(=O)CNC(=O)[C@H](CC(=O)O)NC(=O)[C@H](CC(C)C)NC(=O)[C@H](Cc1ccc(O)cc1)NC(=O)[C@H](CCCCN)NC(=O)[C@H](CO)NC(=O)[C@H](Cc1ccc(O)cc1)NC(=O)[C@H](CC(=O)O)NC(=O)[C@H](CO)NC(=O)[C@@H](NC(=O)[C@H](Cc1ccccc1)NC(=O)[C@@H](NC(=O)CNC(=O)[C@H](CCC(N)=O)NC(=O)[C@H](CO)N[C@@H](Cc1cnc[nH]1)C(=O)O)[C@@H](C)O)[C@@H](C)O)C(C)C)C(=O)N[C@@H](CC(N)=O)C(=O)N[C@H](C(N)=O)[C@@H](C)O | 130 | 580
10 | CSCC[C@H](NC(=O)[C@H](CC(C)C)NC(=O)[C@H](Cc1c[nH]c2ccccc12)NC(=O)[C@H](CCC(N)=O)NC(=O)[C@@H](NC(=O)[C@H](Cc1ccccc1)NC(=O)[C@H](CC(=O)O)NC(=O)[C@H](CCC(N)=O)NC(=O)[C@H](C)NC(=O)[C@H](CCCNC(=N)N)NC(=O)[C@H](CCCNC(=N)N)NC(=O)[C@@H](NC(=O)[C@H](CC(=O)O)NC(=O)[C@H](CC(C)C)NC(=O)[C@H](Cc1ccc(O)cc1)NC(=O)[C@H](CCCCN)NC(=O)[C@H](CO)NC(=O)[C@H](Cc1ccc(O)cc1)NC(=O)[C@H](CC(=O)O)NC(=O)[C@H](CO)NC(=O)[C@@H](NC(=O)[C@H](Cc1ccccc1)NC(=O)[C@@H](NC(=O)CNC(=O)[C@H](CCC(N)=O)NC(=O)[C@H](CO)N[C@@H](Cc1cnc[nH]1)C(=O)O)[C@@H](C)O)[C@@H](C)O)[C@@H](C)O)C(C)C)C(=O)N[C@@H](CC(N)=O)C(=O)N[C@H](C(N)=O)[C@@H](C)O | 130 | 580
